Experiments:
[1] = tested on: MenB-specific memory B cells; design: species or system mice; details: mouse, in vivo
H3N2-specific antibodies [2] = experiment: α-GC in first, second or both priming doses of H3N2, challenge at week 56; type: in vivo, C57BL/6 mice
From the text: (§1) FIG. 8 depicts the immunisation schedule used to assess whether α-GC is required to be present in all vaccine doses used at priming. 20 C57BL/6 female mice, aged 6-8 weeks, were divided into 4 groups of 5 mice. Group 1) was immunised with H3N2 in PBS at week 0 and H3N2+α-GC 2 weeks later. Group 2) were immunised with H3N2+α-GC at week 0 and H3N2 in PBS 2 weeks later. Group 3) were immunised with H3N2 in PBS at week 0 and week 2. Group 4) were immunised with H3N2 and α-GC at week 0 and 2 weeks later. 56 weeks after the initial immunisation, mice in all groups were challenged with 3 μg H3N2 in PBS and recall response was assessed at 58 weeks. All immunisations were intramuscular.
as §1, with “20” for “FIG. 8 depicts the immunisation schedule used to assess whether α-GC is required to be present in all vaccine doses used at priming. 20”, “PBS.” for “PBS and recall response was assessed at 58 weeks.”

H3N2-specific antibodies [3] = experiment: H3N2 antibody response in mice bearing or lacking iNKT cells or CD1d; type: in vivo; details: mice lacking CD1d (CD1−/−); data not shown
From the text: Mice lacking iNKT cells (Ja18−/−) immunised with H3N2 and α-GC (closed boxes) show no enhancement in serum titer of H3N2-specific antibodies compared to mice lacking iNKT cells immunised with H3N2 alone (open boxes). All immunisations were subcutaneous.

[4] = tested on: MenB antigens ΔG287nz-953, 936-741 and 961c; design: species or system mice; details: mouse, in vivo
[5] = tested on: protein-specific antibodies (TT, DT, H3N2); design: species or system C57/BL6 mice; details: mouse, in vivo
[6] = tested on: CD4 T cells producing TNFα; type: in vivo, CD1 mice; details: 10 days after 2nd immunisation, splenocytes cultured 16 hours
Procedure: FIG. 14 show a comparison of the CD4 T cell response against recombinant MenB antigens in mice immunised intramuscularly on day 0 and 21 with: a) a combination vaccine containing 3 MenB antigens and α-GC; b) a combination vaccine containing 3 MenB antigens and Alum; or c) with a combination vaccine containing 3 MenB antigens alone. The CD4 T cell response was assessed two weeks after the second immunisation by incubating total splenocytes with the indicated amount of MenB recombinant proteins for 16 hours ([…] of which in the presence of Brefeldin A). The number CD4 T cells producing TNFα was determined by intracellular staining and FACS analysis). […] As a positive control, response of all three groups of mice to polyclonal stimulation was tested.
A second experiment was conducted to assess the ex vivo CD4 T cell response to MenB antigens. Groups of 6 CD1 female mice were immunised twice with the mix of MenB antigens, formulated in PBS, alum or α-GC. 10 days after the 2nd immunisation, 3 mice/group were sacrificed and their spleens were removed. Whole splenocyte suspensions from individual mice were cultured with the MenB antigens for 16 hours, the last 12 of which were in the presence of brefeldin A to allow intracellular accumulation of cytokines. […] Percentages of CD3+CD4+CD69+ cytokine+ cells in the total CD4+ cell population were determined by FACS analysis.

GBS80-IgG = tested on: GBS80-IgG; design: species or system mice; details: mouse, in vivo
MenB = tested on: MenB; design: species or system mice; details: mouse, in vivo

Q: How did the “frequencies of MenB-specific memory B cells in spleen compared to alum” value [1] turn out when `CCCCCCCCCCCCCCCCCCCCCCCCCC(=O)N[C@@H](CO[C@H]1OC(CO)[C@H](O)C(O)C1O)[C@H](O)[C@@H](O)CCCCCCCCCCCCCC` (stereo partly drawn) [α-GC, α-galactosylceramide] was run?
A: higher frequencies of MenB-specific memory B cells

Q: What about the “efficacy by timing of α-GC dose” value (H3N2-specific antibodies [2]; first versus second vaccine dose) of the same compound?
A: Maximal efficacy was observed when α-GC was given in the first vaccine dose

Q: And the “recall response (H3N2 Ig titers) compared to 2 doses of H3N2 alone” value (H3N2-specific antibodies [2]; two weeks after booster with H3N2 alone on week 56)?
A: higher recall responses

Q: What about the “H3N2-antibody response compared to H3N2 in PBS” value (H3N2-specific antibodies [2]; α-GC in both, first only or second only immunisation) of the same compound?
A: enhance the antibody response even when given only in the first or second immunisation

Q: And the adjuvant activity (H3N2-specific antibodies [3])?
A: did not display adjuvant activity

Q: What about the “antibody response (IgG titers) to the three MenB antigens” value [4] of the same compound?
A: as effective as alum

Q: And the “serum titers of protein-specific antibodies compared to proteins alone” value [5]?
A: one to two logs higher

Q: What about the “expansion of CD4 T cells producing TNFα in response to MenB antigens” value [6] of the same compound?
A: more effective than alum

Q: And the “GBS80-IgG response in the mothers relative to alum” value (GBS80-IgG)?
A: 8 fold

Q: What about the “bactericidal antibody titers compared to alum” value (MenB) of the same compound?
A: higher bactericidal antibody titers than alum

Source: US20140308313A1 (priority 2006, published 2014)
